Data published in patent US10709709B2, “Substituted carbonucleoside derivatives useful as anticancer agents” (Pfizer Inc., priority 2016, dated 2020).
pIC50: −log10 of the molar value. Where a name gives a salt, the structure may show the parent alone.

Columns and labels:
[1] = molecular target: PRMT5/MEP50 protein complex (Homo sapiens (Human), UniProt O14744); test: PRMT5 biochemical assay (3H-SAM methylation of H4(1-21) peptide, filter plate scintillation); settings: 10 nM PRMT5/MEP50 complex, 200 nM H4(1-21) peptide, 1 uM SAM, 25 minute incubation at room temperature
In short: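 Human PRMT5/MEP50 complex (10 nM) methylating H4(1-21) peptide (200 nM) with 3H/unlabelled SAM (1 uM final) in pH 8.5 Tris buffer, 25 min at room temperature. Stopped with TCA, 3H-peptide captured on filter plates and scintillation-counted. IC50 from 4-parameter fit.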

[2] = system: A549 lung adenocarcinoma cells; test: A549 proliferation assay (Cell Titer Glo); assay type: cell-based; settings: 7 days with compound, cell viability by Cell Titer Glo (ATP)
In short: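 A549 cells plated overnight, then treated with nine-point 3.3-fold dilutions (final top 10 μM, 0.2% DMSO) for 7 days at 37 °C, with media and compound refreshed on day 4. Viability measured as ATP by Cell Titer Glo luminescence; IC50 from 4-parameter fit normalized to DMSO control.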

Sequence of PRMT5/MEP50 protein complex (O14744 other isoform, or with tags, fused parts or gaps): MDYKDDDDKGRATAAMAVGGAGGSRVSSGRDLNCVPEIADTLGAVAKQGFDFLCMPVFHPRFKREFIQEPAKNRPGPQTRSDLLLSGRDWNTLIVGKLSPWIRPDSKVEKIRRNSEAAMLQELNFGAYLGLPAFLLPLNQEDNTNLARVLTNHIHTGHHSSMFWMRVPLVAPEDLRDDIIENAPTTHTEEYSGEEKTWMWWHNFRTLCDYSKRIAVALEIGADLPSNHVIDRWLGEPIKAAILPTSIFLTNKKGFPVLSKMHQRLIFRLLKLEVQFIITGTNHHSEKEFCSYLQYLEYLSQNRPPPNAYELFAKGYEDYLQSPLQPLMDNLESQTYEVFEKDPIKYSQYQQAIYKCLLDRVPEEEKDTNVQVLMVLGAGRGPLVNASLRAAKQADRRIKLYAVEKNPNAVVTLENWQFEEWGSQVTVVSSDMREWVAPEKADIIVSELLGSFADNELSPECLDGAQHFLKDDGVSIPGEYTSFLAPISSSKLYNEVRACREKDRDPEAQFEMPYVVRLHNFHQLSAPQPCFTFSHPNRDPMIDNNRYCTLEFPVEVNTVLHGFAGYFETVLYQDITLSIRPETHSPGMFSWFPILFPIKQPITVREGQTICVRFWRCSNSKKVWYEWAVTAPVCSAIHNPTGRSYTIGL
Sequence of PRMT5/MEP50 protein complex (Q9BQA1 whole entry partner): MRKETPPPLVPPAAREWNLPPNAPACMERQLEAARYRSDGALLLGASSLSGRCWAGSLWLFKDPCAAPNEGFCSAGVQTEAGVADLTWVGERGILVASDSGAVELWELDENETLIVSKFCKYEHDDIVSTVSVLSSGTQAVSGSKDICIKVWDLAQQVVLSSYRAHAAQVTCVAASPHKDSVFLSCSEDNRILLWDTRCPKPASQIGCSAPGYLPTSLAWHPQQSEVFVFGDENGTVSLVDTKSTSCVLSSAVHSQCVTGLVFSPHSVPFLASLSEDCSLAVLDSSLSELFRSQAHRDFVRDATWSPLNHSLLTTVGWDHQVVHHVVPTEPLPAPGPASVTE

SMILES: CN1CCc2cccc(O[C@H]3C[C@@H](n4cc(F)c5c(N)ncnc54)[C@H](O)[C@@H]3O)c2C1 [Example 114, (1S,2S,3R,5S)-3-(4-amino-5-fluoro-7H-pyrrolo[2,3-d]pyrimidin-7-yl)-5-((2-methyl-1,2,3,4-tetrahydroisoquinolin-8-yl)oxy)cyclopentane-1,2-diol]
- pIC50 [1]: 8.40
- pIC50 ([2]; Homo sapiens, A549, 168 h): 5.40

SMILES: Nc1ncnc2c1c(F)cn2[C@@H]1C[C@H](Oc2cc(C(F)(F)F)cc3c2CNCC3)[C@@H](O)[C@H]1O [Example 104, (1S,2S,3R,5S)-3-(4-amino-5-fluoro-7H-pyrrolo[2,3-d]pyrimidin-7-yl)-5-((6-(trifluoromethyl)-1,2,3,4-tetrahydroisoquinolin-8-yl)oxy)cyclopentane-1,2-diol]
- pIC50 [1]: 9.00
- pIC50 ([2]; Homo sapiens, A549, 168 h): 6.34

SMILES: Cc1ncnc2c1ccn2[C@@H]1C[C@H](Oc2ccc(F)c3c2C(C)NCC3)[C@@H](O)[C@H]1O (single isomer, unassigned) [Example 214]
- pIC50 [1]: 8.10
- pIC50 [2]: 5.97

SMILES: Cc1ncnc2c1ccn2[C@@H]1C[C@H](Oc2ccc(F)cc2CN)[C@@H](O)[C@H]1O [Example 66, (1S,2S,3S,5R)-3-(2-(aminomethyl)-4-fluorophenoxy)-5-(4-methyl-7H-pyrrolo[2,3-d]pyrimidin-7-yl)cyclopentane-1,2-diol]
- pIC50 [1]: 8.40
- pIC50 ([2]; Homo sapiens, A549, 168 h): 5.17

SMILES: Cc1cc2c(c(O[C@H]3C[C@@H](n4ccc5c(C)ncnc54)[C@H](O)[C@@H]3O)n1)CNCC2 [Example 181, (1S,2S,3S,5R)-3-((3-methyl-5,6,7,8-tetrahydro-2,7-naphthyridin-1-yl)oxy)-5-(4-methyl-7H-pyrrolo[2,3-d]pyrimidin-7-yl)cyclopentane-1,2-diol]
- pIC50 [1]: 9.00
- pIC50 ([2]; Homo sapiens, A549, 168 h): 5.94

SMILES: Cc1ncnc2c1ccn2[C@@H]1C[C@H](Oc2cc(C(F)F)c(F)c3c2CNCC3C)[C@@H](O)[C@H]1O (stereo partly drawn) [Example 212, (1S,2S,3S,5R)-3-((6-(difluoromethyl)-5-fluoro-4-methyl-1,2,3,4-tetrahydroisoquinolin-8-yl)oxy)-5-(4-methyl-7H-pyrrolo[2,3-d]pyrimidin-7-yl)cyclopentane-1,2-diol]
- pIC50 [1]: 9.00
- pIC50 [2]: 8.70

SMILES: Cc1ncnc2c1ccn2[C@@H]1C[C@H](C(F)c2ccc(F)cc2)[C@@H](O)[C@H]1O (single isomer, unassigned) [Example 22]
- pIC50 [1]: 8.52
- pIC50 ([2]; Homo sapiens, A549, 168 h): 6.87

SMILES: Cc1ncnc2c1ccn2[C@@H]1C[C@H](Oc2ccc(F)c3c2CNCC3)[C@@H](O)[C@H]1O [Example 84, (1S,2S,3S,5R)-3-((5-fluoro-1,2,3,4-tetrahydroisoquinolin-8-yl)oxy)-5-(4-methyl-7H-pyrrolo[2,3-d]pyrimidin-7-yl)cyclopentane-1,2-diol]
- pIC50 [1]: 8.70
- pIC50 ([2]; Homo sapiens, A549, 168 h): 6.30

SMILES: O[C@@H]1[C@H](O)[C@@H](Oc2cccc3c2CNCC3)C[C@H]1n1ccc2cncnc21 [Example 118, (1S,2S,3R,5S)-3-(7H-pyrrolo[2,3-d]pyrimidin-7-yl)-5-((1,2,3,4-tetrahydroisoquinolin-8-yl)oxy)cyclopentane-1,2-diol]
- pIC50 [1]: 8.70
- pIC50 ([2]; Homo sapiens, A549, 168 h): 5.32

SMILES: Cc1nc(N)c2c(F)cn([C@@H]3C[C@H](Oc4ccc(F)c5c4CNCC5)[C@@H](O)[C@H]3O)c2n1 [Example 126, (1S,2S,3R,5S)-3-(4-amino-5-fluoro-2-methyl-7H-pyrrolo[2,3-d]pyrimidin-7-yl)-5-((5-fluoro-1,2,3,4-tetrahydroisoquinolin-8-yl)oxy)cyclopentane-1,2-diol]
- pIC50 [1]: 9.00
- pIC50 ([2]; Homo sapiens, A549, 168 h): 6.30

SMILES: Cc1ncnc2c1ccn2[C@@H]1C[C@H](Oc2cc(F)c(F)c3c2CNCC3)[C@@H](O)[C@H]1O [Example 92, (1S,2S,3S,5R)-3-((5,6-difluoro-1,2,3,4-tetrahydroisoquinolin-8-yl)oxy)-5-(4-methyl-7H-pyrrolo[2,3-d]pyrimidin-7-yl)cyclopentane-1,2-diol]
- pIC50 [1]: 9.00
- pIC50 ([2]; Homo sapiens, A549, 168 h): 6.51

SMILES: Nc1ncnc2c1c(Br)cn2[C@@H]1C[C@H](Oc2cc(F)c(F)c3c2CNCC3)[C@@H](O)[C@H]1O [Example 125, (1S,2S,3R,5S)-3-(4-amino-5-bromo-7H-pyrrolo[2,3-d]pyrimidin-7-yl)-5-((5,6-difluoro-1,2,3,4-tetrahydroisoquinolin-8-yl)oxy)cyclopentane-1,2-diol]
- pIC50 [1]: 9.00
- pIC50 ([2]; Homo sapiens, A549, 168 h): 6.20

SMILES: Cc1ncnc2c1ccn2[C@@H]1C[C@H](Oc2ccc(F)c3c2CNCC3C)[C@@H](O)[C@H]1O (single isomer, unassigned) [Example 182, hydrochloride]
- pIC50 [1]: 8.70
- pIC50 ([2]; hydrochloride): 5.66

SMILES: Nc1ncnc2c1c(F)cn2[C@@H]1C[C@H]([C@H](O)c2ccc(F)cc2)[C@@H](O)[C@H]1O [Example 25, (1R,2S,3R,5R)-3-(4-amino-5-fluoro-7H-pyrrolo[2,3-d]pyrimidin-7-yl)-5-[(S)-(4-fluorophenyl)(hydroxy)methyl]cyclopentane-1,2-diol]
- pIC50 [1]: 7.25
- pIC50 ([2]; Homo sapiens, A549, 168 h): 5.78

SMILES: Cc1ncnc2c1ccn2[C@@H]1C[C@H](Oc2cc(Cl)c(F)cc2[C@H](C)N)[C@@H](O)[C@H]1O [Example 139, (1S,2S,3S,5R)-3-(2-((S)-1-aminoethyl)-5-chloro-4-fluorophenoxy)-5-(4-methyl-7H-pyrrolo[2,3-d]pyrimidin-7-yl)cyclopentane-1,2-diol]
- pIC50 [1]: 9.00
- pIC50 ([2]; Homo sapiens, A549, 168 h): 6.20

SMILES: Cc1ncnc2c1ccn2[C@@H]1C[C@H](Oc2cc(Cl)c(F)cc2[C@@H](C)N)[C@@H](O)[C@H]1O [Example 140, (1S,2S,3S,5R)-3-(2-((R)-1-aminoethyl)-5-chloro-4-fluorophenoxy)-5-(4-methyl-7H-pyrrolo[2,3-d]pyrimidin-7-yl)cyclopentane-1,2-diol]
- pIC50 [1]: 7.77
- pIC50 ([2]; Homo sapiens, A549, 168 h): 5.62

SMILES: Nc1ncnc2c1c(F)cn2[C@@H]1C[C@H](Oc2cc(F)c(F)c3c2CNCC3)[C@@H](O)[C@H]1O [Example 103, (1S,2S,3R,5S)-3-(4-amino-5-fluoro-7H-pyrrolo[2,3-d]pyrimidin-7-yl)-5-((5,6-difluoro-1,2,3,4-tetrahydroisoquinolin-8-yl)oxy)cyclopentane-1,2-diol]
- pIC50 [1]: 9.00
- pIC50 ([2]; Homo sapiens, A549, 168 h): 6.70

SMILES: Nc1ncnc2c1c(F)cn2[C@@H]1C[C@H](Oc2cc(F)cc3c2CNCC3)[C@@H](O)[C@H]1O [Example 107, (1S,2S,3R,5S)-3-(4-amino-5-fluoro-7H-pyrrolo[2,3-d]pyrimidin-7-yl)-5-((6-fluoro-1,2,3,4-tetrahydroisoquinolin-8-yl)oxy)cyclopentane-1,2-diol]
- pIC50 [1]: 9.00
- pIC50 ([2]; Homo sapiens, A549, 168 h): 6.00

SMILES: Cc1cc2c(c(O[C@H]3C[C@@H](n4cc(C)c5c(N)ncnc54)[C@H](O)[C@@H]3O)c1)CNCC2 [Example 122, (1S,2S,3R,5S)-3-(4-amino-5-methyl-7H-pyrrolo[2,3-d]pyrimidin-7-yl)-5-((6-methyl-1,2,3,4-tetrahydroisoquinolin-8-yl)oxy)cyclopentane-1,2-diol]
- pIC50 [1]: 8.52
- pIC50 ([2]; Homo sapiens, A549, 168 h): 5.35

SMILES: N#Cc1cc2c(c(O[C@H]3C[C@@H](n4cc(Br)c5c(N)ncnc54)[C@H](O)[C@@H]3O)c1)CNCC2 [Example 120, 8-(((1S,2S,3S,4R)-4-(4-amino-5-bromo-7H-pyrrolo[2,3-d]pyrimidin-7-yl)-2,3-dihydroxycyclopentyl)oxy)-1,2,3,4-tetrahydroisoquinoline-6-carbonitrile]
- pIC50 [1]: 9.00
- pIC50 ([2]; Homo sapiens, A549, 168 h): 6.35
